Laboratory results reported in US9340559B2, “Proteasome inhibitor delanzomib for use in the treatment of lupus” (Cephalon, Inc., priority 2011, dated 2016).

Experiments:
Type in all cases: in vivo, mouse
MRL/lpr mice = test: Renal histopathology scoring (kidney IC-GN), MRL/lpr mice
Description: (§1) For histological analyses, the left kidney from each animal is removed and fixed in 10% buffered neutral 10% formalin (EMD) for 48 hours on an orbital rocker at 25° C., then washed overnight with running dH2O and stored in 70% ethanol at 4° C. until ready to be processed. Kidney stains used for histological analyses included hematoxylin and eosin (H&E), Periodic Acid Schiff (PAS) and Trichrome stains (Wistar Institute, Philadelphia, Pa.). All 3 stained sections are used by the pathologist for scoring purposes. All histological scoring is performed blinded and by an independent board certified veterinary medical pathologist (Julie Engiles, VMD, DACVP). Multiple stains are used to determine score values. Images in FIG. 17 show worst affected area of section selected blindly by the pathologist.
(§2) Kidney IC-GN Scoring Method (Smith, Dong et al. 2007):
(§3) 1. Glomerular cellularity—Score 1-5: Null, low, moderate, high, severe
(§4) 2. Glomerular necrosis—Score 1-5: Null, low, moderate, high, severe
(§5) 3. Glomerulosclerosis—Score 1-5: Null, low, moderate, high, severe
(§6) 4. Interstitial infiltration—Score 1-5: Null, low, moderate, high, severe
(§7) 5. Tubular atrophy—Score 1-5: Null, low, moderate, high, severe
(§8) 6. Interstitial fibrosis—Score 1-5: Null, low, moderate, high, severe
(§9) 7. Vasculitis—Score 1-5: Null, low, moderate, high, severe
(§10) Specific Pathologist Definitions: • Necrosis is defined by the presence of nuclear debris/pyknosis within the glomerular tuft indicative of “necrosis.” In many samples, this is a very mild, rare finding within only a very few segments of the glomerular tuft. Also consider effacement of the glomerular tuft by PAS positive, Trichrome negative material necrosis. • Glomerular sclerosis is defined by increased fibroplasia or fibrosis within the glomerular tuft or capsule. […] Most of the vascular changes are mild and could be considered “arteriosclerosis” characterized by proliferation of the smooth muscle cells, and hyalinization of the extracellular matrix. This change may reflect hypertension secondary to glomerular pathology. In very few animals is there overt “vasculitis.” Most inflammatory changes are within the walls of the blood vessels, with little to no damage to the endothelium, and no overt hemorrhage/fibrin leakage. Many also have perivascular rims of fibroblasts.

NZM mice [1] = test: Body weight progression, NZM mice (Example 2)
NZM mice [2] = test: Renal histopathology scoring (kidney IC-GN), NZM mice (Example 2)
Description: as §1, with “neutral” for “neutral 10%”, “39” for “17”
as §2, §3, §4, §5, §6, §7, §8, §9, §10

[3] = COMPOUND A once and twice weekly

CC(C)C[C@H](NC(=O)[C@@H](NC(=O)c1cccc(-c2ccccc2)n1)[C@@H](C)O)B(O)O [COMPOUND A, [(1R)-1-[[(2S,3R)-3-hydroxy-2-[6-phenyl-pyridine-2-carbonyl)amino]-1-oxobutyl]amino]-3-methylbutylboronic acid]
decrease in average renal pathology score vs vehicle (MRL/lpr mice; COMPOUND A treatment groups): 1.55-1.86 fold | EOS glomerular cellularity, percent change vs vehicle (MRL/lpr mice; G1: 3 mg/kg iv, 1× wk): −41% | EOS glomerular necrosis, percent change vs vehicle (MRL/lpr mice; G1: 3 mg/kg iv, 1× wk): −38% | EOS glomerulosclerosis, percent change vs vehicle (MRL/lpr mice; G1: 3 mg/kg iv, 1× wk): −39% | EOS interstitial infiltration, percent change vs vehicle (MRL/lpr mice; G1: 3 mg/kg iv, 1× wk): −42% | EOS vasculitis, percent change vs vehicle (MRL/lpr mice; G1: 3 mg/kg iv, 1× wk): −33% | Kidney EOS interstitial fibrosis, percent change vs vehicle (MRL/lpr mice; G1: 3 mg/kg iv, 1× wk): −31% | Kidney EOS tubular atrophy, percent change vs vehicle (MRL/lpr mice; G1: 3 mg/kg iv, 1× wk): −35% | EOS glomerular cellularity, percent change vs vehicle (MRL/lpr mice; G2: 3 mg/kg iv, 2× wk): −36% | EOS glomerular necrosis, percent change vs vehicle (MRL/lpr mice; G2: 3 mg/kg iv, 2× wk): −47% | EOS glomerulosclerosis, percent change vs vehicle (MRL/lpr mice; G2: 3 mg/kg iv, 2× wk): −45% | EOS interstitial infiltration, percent change vs vehicle (MRL/lpr mice; G2: 3 mg/kg iv, 2× wk): −61% | EOS vasculitis, percent change vs vehicle (MRL/lpr mice; G2: 3 mg/kg iv, 2× wk): −45% | Kidney EOS interstitial fibrosis, percent change vs vehicle (MRL/lpr mice; G2: 3 mg/kg iv, 2× wk): −42% | Kidney EOS tubular atrophy, percent change vs vehicle (MRL/lpr mice; G2: 3 mg/kg iv, 2× wk): −46% | EOS glomerular cellularity, percent change vs vehicle (MRL/lpr mice; G3: 10 mg/kg po, 2× wk): −33% | EOS glomerular necrosis, percent change vs vehicle (MRL/lpr mice; G3: 10 mg/kg po, 2× wk): −31% | EOS glomerulosclerosis, percent change vs vehicle (MRL/lpr mice; G3: 10 mg/kg po, 2× wk): −33% | EOS interstitial infiltration, percent change vs vehicle (MRL/lpr mice; G3: 10 mg/kg po, 2× wk): −50% | EOS vasculitis, percent change vs vehicle (MRL/lpr mice; G3: 10 mg/kg po, 2× wk): −43% | Kidney EOS interstitial fibrosis, percent change vs vehicle (MRL/lpr mice; G3: 10 mg/kg po, 2× wk): −27% | Kidney EOS tubular atrophy, percent change vs vehicle (MRL/lpr mice; G3: 10 mg/kg po, 2× wk): −42% | renal interstitial infiltration reduction vs vehicle (MRL/lpr mice; all 3 COMPOUND A treatment groups): up to 61% | Body mass AUC, percent change vs vehicle (NZM mice [1]; G1 3 mg/kg ip, 1× wk): +9% | body weight increase compared to vehicle (NZM mice [1]; G1: 3 mg/kg ip once per week): 9% | Body mass AUC, percent change vs vehicle (NZM mice [1]; G2 3 mg/kg ip, 2× wk): +10% | body weight increase compared to vehicle (NZM mice [1]; G2: 3 mg/kg ip twice weekly): 10% | p, glomerular cellularity (GC) vs G3 Bortezomib 0.3 mg/kg 1× wk (NZM mice [2]; 3 mg/kg 1× wk): p < 0.01 | p, glomerular cellularity (GC) vs G6 DEX 1.5 mg/kg 1× wk (NZM mice [2]; 3 mg/kg 1× wk): p < 0.01 | p, glomerular cellularity (GC) vs G7 Vehicle (NZM mice [2]; 3 mg/kg 1× wk): p < 0.001 | p, glomerular necrosis (GN) vs G3 Bortezomib 0.3 mg/kg 1× wk (NZM mice [2]; 3 mg/kg 1× wk): p < 0.05 | p, glomerular necrosis (GN) vs G6 DEX 1.5 mg/kg 1× wk (NZM mice [2]; 3 mg/kg 1× wk): p < 0.01 | p, glomerulosclerosis (GS) vs G3 Bortezomib 0.3 mg/kg 1× wk (NZM mice [2]; 3 mg/kg 1× wk): p < 0.001 | p, glomerulosclerosis (GS) vs G6 DEX 1.5 mg/kg 1× wk (NZM mice [2]; 3 mg/kg 1× wk): p < 0.001 | p, glomerulosclerosis (GS) vs G7 Vehicle (NZM mice [2]; 3 mg/kg 1× wk): p < 0.01 | p, interstitial fibrosis (IF) vs G3 Bortezomib 0.3 mg/kg 1× wk (NZM mice [2]; 3 mg/kg 1× wk): p < 0.01 | p, interstitial fibrosis (IF) vs G6 DEX 1.5 mg/kg 1× wk (NZM mice [2]; 3 mg/kg 1× wk): p < 0.001 | p, interstitial fibrosis (IF) vs G7 Vehicle (NZM mice [2]; 3 mg/kg 1× wk): p < 0.01 | p, interstitial infiltration (II) vs G6 DEX 1.5 mg/kg 1× wk (NZM mice [2]; 3 mg/kg 1× wk): p < 0.01 | p, interstitial infiltration (II) vs G7 Vehicle (NZM mice [2]; 3 mg/kg 1× wk): p < 0.05 | p, tubular atrophy (TA) vs G3 Bortezomib 0.3 mg/kg 1× wk (NZM mice [2]; 3 mg/kg 1× wk): p < 0.001 | p, tubular atrophy (TA) vs G6 DEX 1.5 mg/kg 1× wk (NZM mice [2]; 3 mg/kg 1× wk): p < 0.001 | p, tubular atrophy (TA) vs G7 Vehicle (NZM mice [2]; 3 mg/kg 1× wk): p < 0.001 | p, vasculitis (VA) vs G6 DEX 1.5 mg/kg 1× wk (NZM mice [2]; 3 mg/kg 1× wk): p < 0.01 | p, vasculitis (VA) vs G7 Vehicle (NZM mice [2]; 3 mg/kg 1× wk): p < 0.01 | p, glomerular cellularity (GC) vs G3 Bortezomib 0.3 mg/kg 1× wk (NZM mice [2]; 3 mg/kg 2× wk): p < 0.01 | p, glomerular cellularity (GC) vs G6 DEX 1.5 mg/kg 1× wk (NZM mice [2]; 3 mg/kg 2× wk): p < 0.01 | p, glomerular cellularity (GC) vs G7 Vehicle (NZM mice [2]; 3 mg/kg 2× wk): p < 0.001 | p, glomerular necrosis (GN) vs G3 Bortezomib 0.3 mg/kg 1× wk (NZM mice [2]; 3 mg/kg 2× wk): p < 0.05 | p, glomerular necrosis (GN) vs G6 DEX 1.5 mg/kg 1× wk (NZM mice [2]; 3 mg/kg 2× wk): p < 0.01 | p, glomerulosclerosis (GS) vs G3 Bortezomib 0.3 mg/kg 1× wk (NZM mice [2]; 3 mg/kg 2× wk): p < 0.001 | p, glomerulosclerosis (GS) vs G6 DEX 1.5 mg/kg 1× wk (NZM mice [2]; 3 mg/kg 2× wk): p < 0.001 | p, glomerulosclerosis (GS) vs G7 Vehicle (NZM mice [2]; 3 mg/kg 2× wk): p < 0.01 | p, interstitial fibrosis (IF) vs G3 Bortezomib 0.3 mg/kg 1× wk (NZM mice [2]; 3 mg/kg 2× wk): p < 0.01 | p, interstitial fibrosis (IF) vs G6 DEX 1.5 mg/kg 1× wk (NZM mice [2]; 3 mg/kg 2× wk): p < 0.001 | p, interstitial fibrosis (IF) vs G7 Vehicle (NZM mice [2]; 3 mg/kg 2× wk): p < 0.01 | p, interstitial infiltration (II) vs G6 DEX 1.5 mg/kg 1× wk (NZM mice [2]; 3 mg/kg 2× wk): p < 0.01 | p, interstitial infiltration (II) vs G7 Vehicle (NZM mice [2]; 3 mg/kg 2× wk): p < 0.05 | p, tubular atrophy (TA) vs G3 Bortezomib 0.3 mg/kg 1× wk (NZM mice [2]; 3 mg/kg 2× wk): p < 0.01 | p, tubular atrophy (TA) vs G6 DEX 1.5 mg/kg 1× wk (NZM mice [2]; 3 mg/kg 2× wk): p < 0.001 | p, tubular atrophy (TA) vs G7 Vehicle (NZM mice [2]; 3 mg/kg 2× wk): p < 0.001 | p, vasculitis (VA) vs G7 Vehicle (NZM mice [2]; 3 mg/kg 2× wk): p < 0.05 | glomerular cellularity reduction vs vehicle (NZM mice [2]; [3]): ~50% | glomerulosclerosis reduction vs vehicle (NZM mice [2]; [3]): ~53% | interstitial fibrosis reduction vs vehicle (NZM mice [2]; [3]): ~55% | interstitial infiltration reduction vs vehicle (NZM mice [2]; [3]): 43-46% | tubular atrophy reduction vs vehicle (NZM mice [2]; [3]): 55-59% | vasculitis reduction vs vehicle (NZM mice [2]; [3]): 51-55% | Kidney glomerular cellularity, percent change vs vehicle (NZM mice [2]; G1 3 mg/kg ip, 1× wk): −48% | Kidney glomerular necrosis, percent change vs vehicle (NZM mice [2]; G1 3 mg/kg ip, 1× wk): −29% | Kidney glomerulosclerosis, percent change vs vehicle (NZM mice [2]; G1 3 mg/kg ip, 1× wk): −54% | Kidney interstitial fibrosis, percent change vs vehicle (NZM mice [2]; G1 3 mg/kg ip, 1× wk): −56% | Kidney interstitial infiltration, percent change vs vehicle (NZM mice [2]; G1 3 mg/kg ip, 1× wk): −46% | Kidney tubular atrophy, percent change vs vehicle (NZM mice [2]; G1 3 mg/kg ip, 1× wk): −59% | Kidney vasculitis, percent change vs vehicle (NZM mice [2]; G1 3 mg/kg ip, 1× wk): −55% | Kidney glomerular cellularity, percent change vs vehicle (NZM mice [2]; G2 3 mg/kg ip, 2× wk): −50% | Kidney glomerular necrosis, percent change vs vehicle (NZM mice [2]; G2 3 mg/kg ip, 2× wk): −29% | Kidney glomerulosclerosis, percent change vs vehicle (NZM mice [2]; G2 3 mg/kg ip, 2× wk): −53% | Kidney interstitial fibrosis, percent change vs vehicle (NZM mice [2]; G2 3 mg/kg ip, 2× wk): −55% | Kidney interstitial infiltration, percent change vs vehicle (NZM mice [2]; G2 3 mg/kg ip, 2× wk): −43% | Kidney tubular atrophy, percent change vs vehicle (NZM mice [2]; G2 3 mg/kg ip, 2× wk): −55% | Kidney vasculitis, percent change vs vehicle (NZM mice [2]; G2 3 mg/kg ip, 2× wk): −51% | decrease in renal histopathology score over several parameters vs vehicle (NZM mice [2]; mouse, in vivo): 45-55%
